{"source": "patent US11266710B2", "about": "“Angio-3 for treatment of retinal angiogenic diseases” (SINGAPORE HEALTH SERVICES PTE LTD, priority 2017, dated 2022)", "test_system": "KIMBA mice (KIMBA-hVEGF Transgenic)", "experiment": "Retinal angiogenesis (FFA leakage) in KIMBA mice", "format": "in vivo, mouse", "details": "single IVT injection 1 μg in 1 μL", "excerpt": "FIGS. 1A, 1B, 1C and 1D show the efficacy of a single IV dose of angio-3 in attenuating the retinal angiogenesis in KIMBA mice, which have over expression of human VEGF (KIMBA-hVEGF Transgenic). FIG. 1A is a schematic of the experimental design. FIG. 1B are images showing Fundus Fluorescein Angiography (FFA) images of baseline and weekly after post treatment. Digital color fundus photographs were taken using a MICRON IV comprehensive system for rodent retinal imaging (Phoenix Research Labs, Pleasanton, Calif.) after pupil dilatation with topical administration of 1% tropicamide (Alcon Laboratories, Inc., Fort Worth, Tex.) and 2.5% phenylephrine (Bausch and Lomb Pharmaceuticals, Inc., Tampa, Fla.) ophthalmic solutions. […] Readout is the leakage of retinal vascularization post-administration of the drug. n=6 eyes per batch; n=3 batches; Values are expressed as means±s.e.m., **P<0.01, *P<0.05, student's t-test. […] All imaging was performed with a laser-scanning confocal fluorescence microscope.\nFIGS. 2A, 2B, 2C and 2D show the efficacy of a single IVT dose of angio-3 and Eylea (anti-VEGF), positive control in attenuating the retinal angiogenesis in KIMBA mice. […] Readout is the leakage of retinal vascularization post-administration of the drug. n=10 eyes per batch; n=2 batches; Values are expressed as means±s.e.m., **P<0.01, *P<0.05, student's t-test. […]", "data": [{"substance": "Eylea: Eylea (anti-VEGF), positive control; clinical compound [reference compound]", "values": [{"measurement": "duration of effect in attenuating retinal angiogenesis post treatment", "result": 4, "unit": "weeks"}]}]}
